{
  "source": "paper PMC8580884",
  "about": "“A Novel System for Evaluating the Inhibition Effect of Drugs on Cytochrome P450 Enzymes in vitro Based on Human-Induced Hepatocytes (hiHeps)” (Frontiers in Pharmacology, 2021)",
  "key": {"CYP2C19": {"target": "T1, CYP2C19 (Homo sapiens, UniProt P33261)", "T1 construct": "native enzyme in human liver microsomes (IC50) or human-induced hepatocytes hiHeps (Km)", "T1 sequence (P33261 whole entry)": "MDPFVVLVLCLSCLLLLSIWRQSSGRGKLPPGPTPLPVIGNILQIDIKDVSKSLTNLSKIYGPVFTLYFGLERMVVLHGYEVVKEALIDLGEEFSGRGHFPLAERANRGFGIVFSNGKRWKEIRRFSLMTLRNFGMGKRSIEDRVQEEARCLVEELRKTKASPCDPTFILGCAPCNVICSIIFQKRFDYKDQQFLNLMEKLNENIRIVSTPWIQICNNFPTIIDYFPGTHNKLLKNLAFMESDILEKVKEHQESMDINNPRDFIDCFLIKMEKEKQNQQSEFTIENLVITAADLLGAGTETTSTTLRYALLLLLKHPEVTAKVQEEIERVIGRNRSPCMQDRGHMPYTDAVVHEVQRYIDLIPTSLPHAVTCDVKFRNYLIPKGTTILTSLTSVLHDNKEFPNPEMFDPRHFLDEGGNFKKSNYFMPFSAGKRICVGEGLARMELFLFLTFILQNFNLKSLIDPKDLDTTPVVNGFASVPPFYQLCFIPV", "test": "human liver microsomes, cocktail probe assay, UPLC-MS/MS", "assay_type": "biochemical", "conditions": "read-out: IC50 (μM) / HLM", "from_the_text": "human liver microsomes, cocktail probe assay, UPLC-MS/MS on CYP2C19"}, "CYP1A2": {"target": "T2, CYP1A2 (Homo sapiens, UniProt P05177)", "T2 construct": "native enzyme in pooled human liver microsomes (IC50) or human-induced hepatocytes hiHeps (Km); read by phenacetin to acetaminophen", "T2 sequence (P05177 2-516)": "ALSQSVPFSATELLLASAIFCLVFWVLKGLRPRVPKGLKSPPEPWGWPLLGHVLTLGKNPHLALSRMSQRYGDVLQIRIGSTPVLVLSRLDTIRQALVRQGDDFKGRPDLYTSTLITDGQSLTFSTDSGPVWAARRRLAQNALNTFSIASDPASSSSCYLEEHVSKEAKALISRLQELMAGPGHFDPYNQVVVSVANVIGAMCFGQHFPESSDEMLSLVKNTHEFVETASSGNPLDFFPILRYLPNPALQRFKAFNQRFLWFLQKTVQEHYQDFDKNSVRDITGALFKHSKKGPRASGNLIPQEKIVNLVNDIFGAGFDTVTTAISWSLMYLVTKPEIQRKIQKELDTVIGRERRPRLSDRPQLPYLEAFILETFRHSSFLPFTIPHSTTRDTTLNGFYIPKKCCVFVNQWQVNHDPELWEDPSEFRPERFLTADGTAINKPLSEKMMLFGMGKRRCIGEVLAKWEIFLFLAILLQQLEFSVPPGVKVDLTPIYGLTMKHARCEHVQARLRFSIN", "test": "human liver microsomes, cocktail probe assay, UPLC-MS/MS", "assay_type": "biochemical", "conditions": "read-out: IC50 (μM) / HLM", "from_the_text": "human liver microsomes, cocktail probe assay, UPLC-MS/MS on CYP1A2"}, "CYP3A4 [1]": {"target": "T3, CYP3A4 (Homo sapiens, UniProt P08684)", "T3 construct": "native enzyme in human liver microsomes (IC50) or human-induced hepatocytes hiHeps (Km); read by midazolam to 1'-hydroxymidazolam (CYP3A5 may contribute)", "T3 sequence (P08684 2-503)": "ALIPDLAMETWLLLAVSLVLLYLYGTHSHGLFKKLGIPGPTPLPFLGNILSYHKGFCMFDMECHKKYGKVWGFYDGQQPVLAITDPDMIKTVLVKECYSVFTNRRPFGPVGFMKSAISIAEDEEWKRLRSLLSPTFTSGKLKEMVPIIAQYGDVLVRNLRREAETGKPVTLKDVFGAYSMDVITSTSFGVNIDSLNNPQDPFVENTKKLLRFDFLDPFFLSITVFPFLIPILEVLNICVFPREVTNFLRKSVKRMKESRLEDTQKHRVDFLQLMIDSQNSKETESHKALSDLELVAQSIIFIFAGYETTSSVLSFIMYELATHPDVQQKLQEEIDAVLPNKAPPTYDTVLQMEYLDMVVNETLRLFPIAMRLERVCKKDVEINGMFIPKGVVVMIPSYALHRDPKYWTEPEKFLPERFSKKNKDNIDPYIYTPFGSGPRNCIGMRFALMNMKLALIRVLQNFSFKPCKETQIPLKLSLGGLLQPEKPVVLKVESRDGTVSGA", "test": "human liver microsomes, cocktail probe assay, UPLC-MS/MS", "assay_type": "biochemical", "conditions": "10 μM midazolam in five-probe cocktail, NADPH, MgCl2, alamethicin, 37°C, 60 min; read-out: IC50 (μM) / HLM", "from_the_text": "human liver microsomes, cocktail probe assay, UPLC-MS/MS on CYP3A4"}, "CYP2B6 [2]": {"target": "T4, CYP2B6 (Homo sapiens, UniProt P20813)", "T4 construct": "native enzyme in human liver microsomes (IC50) or human-induced hepatocytes hiHeps (Km); read by bupropion to hydroxybupropion", "T4 sequence (P20813 1-491)": "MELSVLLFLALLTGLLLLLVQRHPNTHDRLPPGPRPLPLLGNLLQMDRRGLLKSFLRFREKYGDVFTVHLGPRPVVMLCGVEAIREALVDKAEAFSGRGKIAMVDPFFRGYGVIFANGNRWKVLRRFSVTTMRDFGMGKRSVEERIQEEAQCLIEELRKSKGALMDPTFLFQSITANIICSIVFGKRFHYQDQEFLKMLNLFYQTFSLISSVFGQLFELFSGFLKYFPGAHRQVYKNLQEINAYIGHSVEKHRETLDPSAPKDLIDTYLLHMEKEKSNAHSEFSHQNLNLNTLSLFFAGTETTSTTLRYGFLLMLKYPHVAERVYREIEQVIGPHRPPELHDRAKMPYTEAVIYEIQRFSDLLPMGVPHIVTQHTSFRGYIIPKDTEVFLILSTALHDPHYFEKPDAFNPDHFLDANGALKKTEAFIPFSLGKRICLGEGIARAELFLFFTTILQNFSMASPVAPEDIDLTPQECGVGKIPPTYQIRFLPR", "test": "human liver microsomes, cocktail probe assay, UPLC-MS/MS", "assay_type": "biochemical", "conditions": "read-out: IC50 (μM) / HLM", "from_the_text": "human liver microsomes, cocktail probe assay, UPLC-MS/MS on CYP2B6"}, "CYP3A4 [3]": {"target": "T3, CYP3A4", "test": "intact hiHeps cells, metabolite by UPLC-MS/MS, Lineweaver-Burk", "assay_type": "cell-based"}, "CYP2B6 [4]": {"target": "T4, CYP2B6", "test": "intact hiHeps cells, metabolite by UPLC-MS/MS, Lineweaver-Burk", "assay_type": "cell-based", "conditions": "hepatocytes"}, "CYP2C9": {"target": "T5, CYP2C9 (Homo sapiens, UniProt P11712)", "T5 construct": "native enzyme in human liver microsomes (IC50) or human-induced hepatocytes hiHeps (Km); read by diclofenac to 4'-hydroxydiclofenac", "T5 sequence (P11712 whole entry)": "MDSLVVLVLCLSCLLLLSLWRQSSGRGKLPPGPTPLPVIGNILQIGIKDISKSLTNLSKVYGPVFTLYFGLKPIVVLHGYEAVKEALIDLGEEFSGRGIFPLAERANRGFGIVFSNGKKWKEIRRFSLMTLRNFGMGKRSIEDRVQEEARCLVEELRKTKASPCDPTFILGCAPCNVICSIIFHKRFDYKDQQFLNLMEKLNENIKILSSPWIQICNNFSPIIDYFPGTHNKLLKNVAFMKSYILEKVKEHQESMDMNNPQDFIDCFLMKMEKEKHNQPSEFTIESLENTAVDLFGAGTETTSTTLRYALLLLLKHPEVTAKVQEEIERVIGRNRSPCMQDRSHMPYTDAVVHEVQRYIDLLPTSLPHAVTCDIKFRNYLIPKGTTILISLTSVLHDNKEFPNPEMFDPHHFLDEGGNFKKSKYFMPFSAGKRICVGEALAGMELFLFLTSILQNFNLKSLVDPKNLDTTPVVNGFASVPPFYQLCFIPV", "test": "intact hiHeps cells, metabolite by UPLC-MS/MS, Lineweaver-Burk", "assay_type": "cell-based", "conditions": "hepatocytes"}},
  "data": [
    {"smiles": "COc1cc(/C=C/C(=O)CC(=O)/C=C/c2ccc(O)c(OC)c2)ccc1O", "note": "[curcumin]", "values": [
      {"measurement": "IC50", "setting": "CYP2C19", "value": "> 500", "unit": "µM"},
      {"measurement": "IC50", "setting": "CYP1A2", "value": "50.1 ± 2.71", "unit": "µM"},
      {"measurement": "IC50", "setting": "CYP3A4 [1]", "value": "21 ± 1.27", "unit": "µM"},
      {"measurement": "IC50", "setting": "CYP2B6 [2]", "value": "30 ± 2.09", "unit": "µM"}
    ]},
    {"smiles": "Cc1ncc2n1-c1ccc(Cl)cc1C(c1ccccc1F)=NC2", "note": "[midazolam]", "values": [
      {"measurement": "Km", "setting": "CYP3A4 [3]", "value": 13.9, "unit": "µM"}
    ]},
    {"smiles": "CC(NC(C)(C)C)C(=O)c1cccc(Cl)c1", "note": "(stereo not shown) [bupropion]", "values": [
      {"measurement": "Km", "setting": "CYP2B6 [4]", "value": 151, "unit": "µM"}
    ]},
    {"smiles": "O=C(O)Cc1ccccc1Nc1c(Cl)cccc1Cl", "note": "[diclofenac]", "values": [
      {"measurement": "Km", "setting": "CYP2C9", "value": 41.9, "unit": "µM"}
    ]}
  ]
}
